The values that follow come from patent publication US20160331662A1, “Compositions that Inhibit and Prevent the Formation of Dental Caries and Methods of Using the Same” (priority 2014, published 2016).

One assay concerns AgI/II VheI (S. mutans). The assay is described as follows: SPR binding of SRCR peptide to immobilized surface protein (Example 3). As to the method: (§1) Binding of the SRCR peptide […] (SEQ ID NO: 10) to immobilized bacterial surface proteins was determined using procedures as described in Example 1.
(§2) The interaction of the SRCR peptide […] (SEQ ID NO:10) with immobilized bacterial surface proteins AgI/II, SspB and GbpC as examined by surface plasmon resonance studies are shown in FIGS. 27A, 27B and 27C respectively, and binding affinities determined from these studies are listed in Table 8.
On the technique in general: SPR reads the build-up and loss of mass on a sensor chip optically.

The next assay deals with GbpC (S. mutans). The assay is described as above. As to the method:
as §1, §2

In another assay the test system is SspB VheI (S. gordonii). The assay is described as above. As to the method: as §1, §2
For assay [1], the target named is T1, iSRCR123 (Homo sapiens, UniProt Q9UGM3).
T1 construct: multiple SRCR domains have better adherence capability compared to that of a single SRCR domain; made in house; host or cells: Drosophila expression system
Description: Competition adherence SPR on immobilized iSRCR123. The class given is binding. The following applies: FL injected first. As to the method: (§3) To determine whether AgI/II domains bound to the same site on SRCR domains, competitive binding SPR experiments were conducted in triplicates as previously described where each fragment of AgI/II (FL, A3VP1, or C123) or SspB (FL, A3VP1 or C123) was initially passed over the chip surface immobilized with either iSRCR1, iSRCR123 or SAG for 60 seconds to saturate available binding sites. The response curve of AgI/II or SspB first fragment was recorded, where the maximal RU (RU1) was considered as the base line for the second injection, and thereafter the competing fragment was injected and its response was recorded as RU2. The adherence of the second fragment was then calculated (RU2−RU1) for all SPR competing assay as reported earlier.

In assay [2] the target is T1, iSRCR123. The assay is described as follows: SPR binding of analytes to immobilized iSRCR123 (CM5 chip, 1:1 Langmuir). The following applies: for direct binding to immobilized iSRCR123 (in words): substance alone over CM5 chip. The method, then: (§4) Real time binding analyses of the SRCR domains with AgI/II fragments were carried out using the BIAcore 2000 system. […] Self association of iSRCR1 or iSRCR123 (at 2 μM) were also determined in a similar manner as described above. Finally to determine the effect of calcium SPR analysis was carried out by dialyzing the analytes and ligands in binding buffer devoid of CaCl2.
(§5) In addition, the SRCR holding two distinct surfaces compounded the elucidation of individual kinetics, and presently there are no modeling protocols available to determine the individual affinities for such a system, therefore for simplicity we have utilized a single site 1:1 Langmuir model. All experiments were carried out in triplicates and the kinetics of the association (KA) and dissociation (KD) rate constants were deduced using the 1:1 Langmuir Kinetic model on the BIA-Evaluation software. The concentration (C in μM) of analyte (FL^AgI/II or FL^SspB at 2 μM) that adhered to the immobilized ligand (iSRCR1, iSRCR123) within the flow cell was calculated using the formula C=(RU/MW)×(1/V), where RU is resonance unit (1 RU=1 pg of bound protein), MW is molecular weight of analyte and V is volume of flow cell (1.2×10^−10 L).

In assay [3] the target is T2, iSRCR1 (Homo sapiens, UniProt Q9UGM3).
T2 construct: strongly proves that a single SRCR domain contains the adherence sites for AgI/II and SspB; made in house; host or cells: Drosophila expression system
The assay is described as follows: Competition adherence SPR on immobilized iSRCR1. The class given is binding. The following applies: FL injected first. The method, then: as §3

The next assay has as its target T3, SAG (Homo sapiens, UniProt Q9UGM3).
T3 construct: from tissue; host or cells: saliva (purified SAG, gift)
The following applies: from reference [15]; read-out: affinity of interaction with SAG; cited from earlier work.

In assay [4] the target is T2, iSRCR1. The assay is described as follows: SPR binding of analytes to immobilized iSRCR1 (CM5 chip, 1:1 Langmuir). The following applies: for direct binding to immobilized iSRCR1 (in words): substance alone over CM5 chip. The method, then: as §4, §5
The target of assay [5] is T4, iSRCR123 (Deglycosylated) (Homo sapiens, UniProt Q9UGM3).
T4 construct: multiple SRCR domains have better adherence capability compared to that of a single SRCR domain; made in house; host or cells: Drosophila expression system
The assay is described as follows: SPR binding of analytes to on-chip deglycosylated iSRCR123. The following applies: ligand iSRCR123 (Deglycosylated). The method, then: as §4
(§6) On-chip Deglycosylation of the iSRCR1 and iSRCR123 was carried out after immobilizing them on CM5 sensor chip. Enzymatic deglycosylation was done to remove N- and O-linked carbohydrates from iSRCR1 and iSRCR123. Briefly, after immobilization of iSRCR1 and iSRCR123, deglycosylation was carried out at native conditions by incubating the entire chip surface externally with a cocktail containing a total reaction volume of 40 μl made up of 4 μl of 10×G7reaction buffer, 4 μl of 10% NP40, 4 μl of Neuraminidase (Sigma), 18 μl water and 10 μl of O-glycosidase (New England Biolabs, Inc.,) and similarly following manufacturers protocols for EndoH (New England Biolabs, Inc). Later, the chip was sealed and incubated overnight at 37° C. Subsequently the chip was thoroughly washed with binding buffer (20 mM HEPES, 150 mM NaCl, 2.5 mM CaCl2) to remove the deglycosylating enzymes and other remnants. Binding studies with FL^AgI/II and FL^SspB and subfragments were then carried out as described above and regenerated as described in Table 2.
as §5

The target of the next assay is T5, iSRCR1 (Deglycosylated) (Homo sapiens, UniProt Q9UGM3).
T5 construct: strongly proves that a single SRCR domain contains the adherence sites for AgI/II and SspB; made in house; host or cells: Drosophila expression system
Description: SPR binding of analytes to on-chip deglycosylated iSRCR1. The note with it: ligand iSRCR1 (Deglycosylated). The method, then:
as §4, §6, §5

Assay [6] concerns S. mutans UA159. The assay is described as follows: Aggregation assay (OD700 over 60 min). The class given is cell-based. The following applies: iSRCR 10 μM or SAG, 6 mM CaCl2. As to the method:
(§7) Aggregation assays were performed as described earlier with slight modifications. Briefly, S. mutans UA159 and S. gordonii DL1 cells were grown in TSY broth media overnight at 37° C. in the presence of 5% CO2. The bacteria were centrifuged at 5000×g and washed with a buffer containing 20 mM HEPES pH 7.4, 150 mM NaCl and re-suspended to an approximate OD700 of 1. The bacterial suspension (900 μl) was mixed with 100 μl of SAG or iSRCR1 (10 μM) or iSRCR123 ([…]) or commercially synthesized (Think Peptides, Inc) SRCRP2 peptide with fluorescein amidite (FAM) at the carboxyl end ([…]-[FAM]) (SEQ ID NO:9, at both 400 μg/ml and 1 mg/ml) in the presence of 6 mM CaCl2 and aggregation was measured by recording OD700over 60 min at 5 min intervals, where the buffer alone was used as control. All experiments were carried out at least five times, and the results were analyzed with One-way ANOVA. Post-hoc testing where *, P<0.05 was considered statistically significant and results were presented as the percentage of cells aggregated.

For assay [7], the system named is S. gordonii DL1. The assay is described as follows: Aggregation assay (OD700 over 60 min). It counts as cell-based. The note with it: iSRCR 10 μM or SAG, 6 mM CaCl2. As to the method:
as §7

In assay [8] the test system is S. mutans UA159. Description: Confocal microscopy of iSRCR adherence to bacteria. It counts as cell-based. The following applies: 10 μM. The method, then: S. mutans UA159 and S. gordonii DL1 were grown overnight in TSY (30 g/L of Trypticase soy broth and 0.5 g/L yeast extract, pH 7.2) media on an eight-well Lab Tek Chamber slide system (Sigma). The cells were fixed with 3% paraformaldehyde, washed with binding buffer (20 mM HEPES pH 7.4, 150 mM NaCl and 2.5 mM CaCl2), and thereafter iSRCR1 or iSRCR123 (10 μM) were added to the cells and incubated for 60 min. The unbound SRCRs were removed by repeated washing using the binding buffer. Subsequently, Alexa fluor 488 conjugated Anti-His-tag antibody (EMD Millipore, Inc) (1:50 dilution) that can bind to the His Tag on SRCRs was added. After 60 min incubation the unbound antibody was washed away thoroughly using binding buffer, and the chamber walls were gently removed. Cover slips were then mounted with 15 μl of fluoromount-G with DAPI (Southern Biotech Inc) to stain bacterial nuclei and were sealed until ready to be imaged. The experiment without SRCRs served as control. All slides were imaged using Leica SP1 UV Confocal Laser Scanning Microscope and Zeiss LSM 710 Confocal Laser Scanning Microscope at the UAB-High resolution imaging facility (UAB-HRIF).

Assay [9] concerns S. mutans UA159. The assay is described as follows: Flow cytometric analysis of iSRCR adherence to bacteria. The class given is cell-based. The following applies: 10 μM. The method, then: (§8) S. mutans UA159 and S. gordonii DL1 cells were grown overnight in TSY broth media at 37° C. and washed thoroughly with FACS buffer (20 mM HEPES pH 7.4, 150 mM NaCl and 5% non-fat dry milk) to reduce non-specific binding. Subsequently, 10 μM of iSRCR1 or iSRCR123 were added to 100 μl of cells (1×10^7 cells/ml) in binding buffer (FACS buffer+2.5 mM CaCl2) and incubated for 60 min at 37° C. The cells were later washed thoroughly with binding buffer to remove unbound iSRCRs. Subsequently, Anti-His tag Alexafluor 488 antibody (1:50 dilution) (EMD Millipore, Inc) that adheres to the His tag present on SRCRs was added to the cells and incubated for 30 min, washed three times and resuspended in 200 μl of binding buffer. Samples without iSRCRs served as control. Samples were then assayed using the FACScan machine (BD Biosciences) at the Analytical and Preparative Cytometry Facility (APCF) at UAB, and data obtained was analyzed using FlowJo 7.2.4 software.
On the technique in general: In flow cytometry, cells or beads pass a laser one at a time.

Assay [10] has as its system S. gordonii DL1. The description is as above. The class given is cell-based. The following applies: 10 μM, compared with S. mutans. As to the method: as §8

AgI/II VheI (S. mutans), sequence (P23504 464-840 limits assumed): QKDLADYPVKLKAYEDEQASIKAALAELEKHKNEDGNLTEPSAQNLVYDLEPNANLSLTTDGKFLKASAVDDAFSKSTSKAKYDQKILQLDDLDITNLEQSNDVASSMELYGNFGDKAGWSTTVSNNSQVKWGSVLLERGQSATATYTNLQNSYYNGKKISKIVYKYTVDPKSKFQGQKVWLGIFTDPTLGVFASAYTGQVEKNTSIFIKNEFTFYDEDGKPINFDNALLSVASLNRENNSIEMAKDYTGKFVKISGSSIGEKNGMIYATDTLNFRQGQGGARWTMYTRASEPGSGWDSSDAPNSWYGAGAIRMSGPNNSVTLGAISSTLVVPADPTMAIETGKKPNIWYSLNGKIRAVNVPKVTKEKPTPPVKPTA
T4 sequence (Q9UGM3 102-463 limits assumed): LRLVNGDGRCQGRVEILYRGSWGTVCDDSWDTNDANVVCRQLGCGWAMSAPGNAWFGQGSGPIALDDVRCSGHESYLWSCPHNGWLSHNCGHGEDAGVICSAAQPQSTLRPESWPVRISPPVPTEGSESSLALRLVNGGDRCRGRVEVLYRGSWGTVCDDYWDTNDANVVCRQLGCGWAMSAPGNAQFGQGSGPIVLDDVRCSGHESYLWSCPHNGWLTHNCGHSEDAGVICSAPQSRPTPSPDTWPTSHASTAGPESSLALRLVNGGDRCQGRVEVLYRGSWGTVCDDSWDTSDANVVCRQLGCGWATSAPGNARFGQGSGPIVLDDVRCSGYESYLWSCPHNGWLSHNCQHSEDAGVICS
T1 sequence (Q9UGM3 102-463 limits assumed): as above
T2 sequence (Q9UGM3 102-202 limits assumed): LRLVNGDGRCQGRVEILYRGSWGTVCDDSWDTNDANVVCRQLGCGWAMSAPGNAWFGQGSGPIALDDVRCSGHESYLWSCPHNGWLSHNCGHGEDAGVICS
T5 sequence (Q9UGM3 102-202): as the sequence (Q9UGM3 102-202 limits assumed) above
T3 sequence (Q9UGM3 20-2413): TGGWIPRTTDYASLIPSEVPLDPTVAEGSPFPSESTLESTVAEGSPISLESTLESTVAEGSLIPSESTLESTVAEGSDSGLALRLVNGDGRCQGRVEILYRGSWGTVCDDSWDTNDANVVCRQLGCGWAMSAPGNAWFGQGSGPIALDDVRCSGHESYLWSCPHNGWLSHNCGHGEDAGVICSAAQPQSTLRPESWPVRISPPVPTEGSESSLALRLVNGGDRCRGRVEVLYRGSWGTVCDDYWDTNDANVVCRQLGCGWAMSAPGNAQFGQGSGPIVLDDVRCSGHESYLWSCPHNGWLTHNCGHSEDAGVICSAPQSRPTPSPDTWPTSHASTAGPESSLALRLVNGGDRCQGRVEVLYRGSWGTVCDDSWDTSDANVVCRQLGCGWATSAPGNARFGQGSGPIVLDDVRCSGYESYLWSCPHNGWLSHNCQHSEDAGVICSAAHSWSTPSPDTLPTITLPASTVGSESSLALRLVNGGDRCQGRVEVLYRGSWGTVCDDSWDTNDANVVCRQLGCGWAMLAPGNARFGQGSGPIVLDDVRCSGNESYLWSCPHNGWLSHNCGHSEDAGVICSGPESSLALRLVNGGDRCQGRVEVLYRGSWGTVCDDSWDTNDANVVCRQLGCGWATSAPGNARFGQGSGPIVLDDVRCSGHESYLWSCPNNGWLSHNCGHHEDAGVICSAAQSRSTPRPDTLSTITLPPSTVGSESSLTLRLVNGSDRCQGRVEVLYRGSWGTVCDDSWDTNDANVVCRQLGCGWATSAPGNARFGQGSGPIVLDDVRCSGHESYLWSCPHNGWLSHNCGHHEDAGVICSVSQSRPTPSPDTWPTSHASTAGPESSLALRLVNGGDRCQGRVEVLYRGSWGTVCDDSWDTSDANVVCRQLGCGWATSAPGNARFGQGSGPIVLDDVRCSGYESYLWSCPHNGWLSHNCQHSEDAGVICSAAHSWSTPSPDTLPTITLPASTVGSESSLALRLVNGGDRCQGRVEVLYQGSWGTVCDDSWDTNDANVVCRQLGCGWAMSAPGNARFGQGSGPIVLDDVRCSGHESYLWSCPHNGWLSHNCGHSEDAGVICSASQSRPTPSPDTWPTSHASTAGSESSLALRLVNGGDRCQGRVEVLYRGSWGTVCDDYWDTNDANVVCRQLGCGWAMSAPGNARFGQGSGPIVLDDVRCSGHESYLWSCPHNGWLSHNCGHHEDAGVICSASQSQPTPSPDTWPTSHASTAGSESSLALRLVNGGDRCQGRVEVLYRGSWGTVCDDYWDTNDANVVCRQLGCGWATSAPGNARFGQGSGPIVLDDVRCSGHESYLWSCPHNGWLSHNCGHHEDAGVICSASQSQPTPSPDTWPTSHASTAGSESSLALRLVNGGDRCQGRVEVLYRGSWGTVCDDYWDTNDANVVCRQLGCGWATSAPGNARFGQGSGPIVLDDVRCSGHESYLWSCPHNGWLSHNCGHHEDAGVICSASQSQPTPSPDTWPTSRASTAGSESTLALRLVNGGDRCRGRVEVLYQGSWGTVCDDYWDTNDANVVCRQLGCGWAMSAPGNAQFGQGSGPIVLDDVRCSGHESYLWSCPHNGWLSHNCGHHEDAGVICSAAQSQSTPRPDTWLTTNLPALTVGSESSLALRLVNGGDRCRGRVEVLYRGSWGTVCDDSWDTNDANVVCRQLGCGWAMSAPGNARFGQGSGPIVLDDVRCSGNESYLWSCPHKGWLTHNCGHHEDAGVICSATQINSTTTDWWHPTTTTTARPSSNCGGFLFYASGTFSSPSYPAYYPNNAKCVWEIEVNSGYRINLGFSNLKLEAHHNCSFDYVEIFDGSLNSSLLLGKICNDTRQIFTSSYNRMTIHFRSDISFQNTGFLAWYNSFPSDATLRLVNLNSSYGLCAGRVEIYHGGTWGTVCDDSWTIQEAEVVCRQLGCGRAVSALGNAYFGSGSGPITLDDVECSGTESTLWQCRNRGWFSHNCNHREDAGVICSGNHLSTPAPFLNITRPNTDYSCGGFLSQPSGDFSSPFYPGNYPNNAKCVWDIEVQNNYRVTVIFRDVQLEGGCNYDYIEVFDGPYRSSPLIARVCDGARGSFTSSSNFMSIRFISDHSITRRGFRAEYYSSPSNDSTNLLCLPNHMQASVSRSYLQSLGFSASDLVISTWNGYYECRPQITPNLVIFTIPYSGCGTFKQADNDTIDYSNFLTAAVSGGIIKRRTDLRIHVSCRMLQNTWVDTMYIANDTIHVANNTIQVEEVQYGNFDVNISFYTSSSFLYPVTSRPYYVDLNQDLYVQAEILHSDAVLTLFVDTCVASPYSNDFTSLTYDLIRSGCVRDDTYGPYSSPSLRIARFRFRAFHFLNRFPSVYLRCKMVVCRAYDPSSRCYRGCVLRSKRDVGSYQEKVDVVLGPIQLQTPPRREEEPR

As to ETNDANVVARQL [SRCR peptide], in the assay with AgI/II VheI (S. mutans), the KA worked out at 1.56e+08 M⁻¹, the Kd worked out at 6.42 nM, the Rmax is 43.3 Ru and the ka is recorded as 1.08 × 10^7 1/ms. The substance also had a kd at AgI/II VheI (S. mutans) of 0.696 s⁻¹. Further, in the assay with GbpC (S. mutans), the KA stood at 2.57e+08 M⁻¹, the Kd was 3.89 nM, the Rmax amounted to 232 Ru and the ka is 1.47 × 10^7 1/ms. Further, the kd on GbpC (S. mutans) came to 0.0573 s⁻¹. Besides, in the assay on SspB VheI (S. gordonii), the KA is 1.42e+08 M⁻¹, the Kd is 7.02 nM, the Rmax is given as 110 Ru and the ka is 4.44 × 10^6 1/ms. At SspB VheI (S. gordonii), the kd amounted to 0.0312 s⁻¹.

In the case of “FL^AgI/II: S. mutans AgI/II full length construct (167.5 kDa)”, the “inhibition of binding of the A3VP1 fragment of the same protein” value came out at 44% with iSRCR123 [1] and 46% with iSRCR1 [3]. Besides, the “inhibition of binding of the C123 fragment of the same protein” value amounted to 25% with iSRCR123 [1] and 36% with iSRCR1 [3]. In the assay with iSRCR123 [2] (analyte at 2 μM, iSRCR123 versus iSRCR1), the “quantity of protein that adhered to iSRCR123, higher than iSRCR1” value stood at 16%. Besides, the KA with iSRCR123 [2] (ligand iSRCR123) amounted to 1.34e+08 M⁻¹; with iSRCR1 [4] (ligand iSRCR1) it was 1.31e+08 M⁻¹; in assay [5], 6.82e+06 M⁻¹; in the assay with iSRCR1 (Deglycosylated) it was 865000 M⁻¹. Moreover, the Kd in the assay with iSRCR123 [2] (ligand iSRCR123) is 7.46 nM; with SAG, 33.3 nM; with iSRCR1 [4] (ligand iSRCR1), 7.69 nM; in assay [5], 147 nM; in the assay with iSRCR1 (Deglycosylated) it was 1160 nM. Moreover, the ka with iSRCR123 [2] (ligand iSRCR123) was 99700 M⁻¹ s⁻¹; in the assay with iSRCR1 [4] (ligand iSRCR1), 127000 M⁻¹ s⁻¹; in assay [5], 3160 M⁻¹ s⁻¹; with iSRCR1 (Deglycosylated), 49700 M⁻¹ s⁻¹. In addition, the kd was found to be 0.000743 s⁻¹ in the assay with iSRCR123 [2] (ligand iSRCR123), 0.000976 s⁻¹ with iSRCR1 [4] (ligand iSRCR1), 0.000464 s⁻¹ in [5] and 0.0575 s⁻¹ in the assay with iSRCR1 (Deglycosylated).

On to Lysozyme [reference compound], for which, on iSRCR123 [2], the “direct binding to immobilized iSRCR123 (in words)” value is “binding”. In addition, on iSRCR1 [4], the “direct binding to immobilized iSRCR1 (in words)” value is given as “binding”.

Take “iSRCR123: recombinant construct of three tandem SRCR domains of Gp340 (43 kDa)”: the entries for the “percentage of cells aggregated” value with S. mutans UA159 [6] and in the assay on S. gordonii DL1 [7] were 69% and 48%, respectively. For the same substance, in the assay on S. mutans UA159 [8], the “binding to cells by confocal microscopy (in words)” value is “binding”. In the assay on S. mutans UA159 [9], the “increase in fluorescence intensity compared to the control” value is recorded as ~100 fold. In addition, in the assay on S. gordonii DL1 [10], the “adherence by FACS (in words)” value is given as “lower adherence”.

thaumatin [reference compound]: the “direct binding to immobilized iSRCR123 (in words)” value on iSRCR123 [2] is recorded as “not”. In addition, the “direct binding to immobilized iSRCR1 (in words)” value at iSRCR1 [4] is on record as “not”.
